Measurements published in ChEMBL document CHEMBL5674860, “Optimized Dual-Glo Assay to identify co-culture-induced drug vulnerabilities in 3D CRC models” (2024).

Tests used:
Format in all cases: functional, Homo sapiens
Set-up in all cases: dose or concentration left out as unconfirmed
Colon cancer organoid [1] = assay: Optimized Dual-Glo assay to identify co-culture induced drug vulnerabilities using donated chemical probes and chemogenomics kinase set in O06 CRC organoid and F06 CAF mono and co-culture. […] Cell viability is reported both mono and co-culture models.
Colon cancer organoid [2] = assay: Optimized Dual-Glo assay to identify co-culture induced drug vulnerabilities using donated chemical probes and chemogenomics kinase set in O14 CRC organoid and F14 CAF mono and co-culture. […] Cell viability is reported both mono and co-culture models.
Colon cancer organoid [3] = assay: Optimized Dual-Glo assay to identify co-culture induced drug vulnerabilities using donated chemical probes and chemogenomics kinase set in O20 CRC organoid and F20 CAF mono and co-culture. […] Cell viability is reported both mono and co-culture models.
[4] = Culture type Co-Culture, Transduced with Lucferase2-P2A-EGFP lentivirus
[5] = Culture type Co-Culture, Transduced with Renilla-dsRed lentivirus
[6] = Culture type Mono-Culture, Transduced with Lucferase2-P2A-EGFP lentivirus
[7] = Culture type Mono-Culture, Transduced with Renilla-dsRed lentivirus

Structure (SMILES)	Cell Viability (Colon cancer organoid [1]; [4])	Cell Viability (Colon cancer organoid [1]; [5])	Cell Viability (Colon cancer organoid [1]; [6])	Cell Viability (Colon cancer organoid [1]; [7])	Cell Viability (Colon cancer organoid [2]; [4])	Cell Viability (Colon cancer organoid [2]; [5])	Cell Viability (Colon cancer organoid [2]; [6])	Cell Viability (Colon cancer organoid [2]; [7])	Cell Viability (Colon cancer organoid [3]; [4])	Cell Viability (Colon cancer organoid [3]; [5])	Cell Viability (Colon cancer organoid [3]; [6])	Cell Viability (Colon cancer organoid [3]; [7])
COc1cc2c(cc1NS(=O)(=O)c1ccc(Br)cc1C)n(C)c(=O)n2C	53.0589%	146.987%	78.5311%	120.075%	78.4023%	92.6515%	95.4962%	108.084%	86.3374%	193.757%	91.9028%	113.163%
COc1cc2c(cc1OCCCN1CCCC1)N=C(N)C21CCC1	84.9948%	83.704%	86.6673%	61.562%	71.4641%	82.9559%	58.4791%	57.8128%	75.7779%	100.254%	68.8586%	68.8682%
COc1c(OCCCN2CCOCC2)ccc2c1N=C(NC(=O)c1cnc(N)nc1)N1CCN=C21 [COPANLISIB]	1.487%	40.0213%	1.127%	24.3347%	3.879%	63.1617%	2.323%	50.5605%	2.276%	117.524%	0.6907%	109.388%
COc1ccc(CCc2nc3cc(-c4c(C)noc4C)ccc3n2C[C@H](C)N2CCOCC2)cc1Cl	78.634%	97.126%	66.152%	156.889%	90.4848%	144.282%	124.855%	138.359%	95.7417%	133.846%	83.4803%	106.755%
CN(C(=O)c1cnn2cccnc12)c1cc2c(cc1N1CCOCC1)C(=O)N(C[C@@H](F)C(C)(C)O)C2	93.6773%	65.3185%	72.0703%	97.8487%	89.5893%	113.489%	112.103%	103.195%	85.0124%	89.8275%	94.3235%	98.269%
CCCc1cc(C)[nH]c(=O)c1CNC(=O)c1cc(-c2ccc(N3CCN(C(C)C)CC3)nc2)cc2c1cnn2C(C)C	81.1391%	118.175%	116.95%	88.1686%	66.7096%	94.8471%	83.1931%	95.0739%	58.7881%	157.842%	61.2858%	75.3301%
N#CN1CC[C@@H](C(=O)Nc2nc3c(s2)CN(C(=O)CN=[N+]=[N-])CC3)C1 [JYQ88]	72.1963%	58.5555%	71.7367%	79.6546%	85.6014%	100.681%	114.259%	88.3695%	63.8809%	84.2967%	72.0417%	77.9243%
O=C1NC(c2ccccn2)Sc2ccccc21 (stereo not drawn) [BTZO-4]	120.289%	168.274%	120.842%	96.0026%	61.6346%	107.214%	121.016%	104.244%	109.35%	85.8309%	124.511%	93.402%
CC(C)[C@H](C(=O)Nc1ccc(C(=O)NO)cc1)c1ccccc1 [AR-42]	8.004%	640.047%	17.2646%	486.211%	19.466%	585.967%	17.1608%	305.591%	13.9159%	352.85%	21.6913%	192.04%
OCCn1cc(-c2cnc3nnn(Cc4ccc5ncccc5c4)c3n2)cn1 [PF-04217903]	88.0795%	107.387%	104.073%	94.3108%	71.8183%	123.95%	91.8486%	91.0833%	121.611%	97.2338%	113.154%	101.829%
COc1ccc(Oc2cc(NCCC(F)(F)F)c3ncc(-c4ccc(C(=O)NC5CC5)c(C)c4)n3n2)c(F)c1F [BAY-1217389]	5.893%	100.303%	6.114%	52.2962%	15.963%	131.783%	28.3238%	88.2574%	10.1003%	184.891%	6.085%	72.716%
Cc1ccc(NC(=O)Nc2cc(C(F)(F)F)ccc2F)cc1Nc1ccc2c(c1)NC(=O)/C2=C\c1ccc[nH]1	112.777%	121.077%	144.763%	85.6075%	100.84%	80.7866%	148.906%	94.1932%	98.8429%	67.3177%	149.041%	99.6693%
Cc1cc(=O)n(C)c2cc(N3C(=O)CC[C@H](NS(=O)(=O)CC(C)C)[C@H]3c3ccc(Cl)cc3)ccc12	117.914%	167.751%	110.238%	116.926%	75.0892%	148.008%	105.721%	116.483%	107.11%	166.434%	116.867%	106.138%
CC(C)(O)c1cncc(-c2nc3ccc(F)cc3n2C2CC2)c1 [MSD-CYP11B2]	83.611%	134.058%	92.3684%	91.4752%	60.604%	97.9336%	96.2618%	98.7246%	80.0796%	128.543%	82.8695%	83.5223%
O=C(NNS(=O)(=O)c1ccccc1F)c1cc(F)cc(-c2ccccn2)c1 [WM-1119]	97.0333%	108.11%	61.3742%	91.757%	33.671%	171.323%	39.6176%	103.912%	68.3772%	152.012%	102.739%	96.1932%
COc1ccccc1-c1cc(Nc2cccc(CS(N)(=O)=O)c2)ncn1	105.6%	95.8866%	67.576%	79.9168%	107.839%	92.9577%	111.603%	77.4194%	104.861%	97.4583%	84.7968%	76.3761%
CC1=C(C(=O)Nc2cc3cn[nH]c3cc2F)C(c2ccc(C(F)(F)F)cc2)CC(=O)N1 (stereo not drawn)	110.512%	74.1449%	112.137%	107.646%	79.4624%	111.728%	79.1311%	103.404%	133.522%	94.2958%	98.8555%	95.2955%
Cc1cc2c(-c3ccco3)cnc(N[C@@H]3CCN(C)C[C@H]3C(=O)NC3CCCCC3)c2[nH]c1=O [GSK789]	76.5976%	134.369%	59.8107%	179.691%	80.165%	245.195%	48.5278%	143.743%	33.945%	125.83%	39.8308%	103.931%
Cc1ccc2[nH]c(CNCCCc3ccncc3)cc(=O)c2c1 [UCSF924NC]	92.2965%	82.507%	94.1046%	89.0396%	108.907%	109.825%	95.9143%	99.591%	121.67%	109.302%	107.027%	101.655%
